Measurements as given in PMC10464297, “Reevaluation of bromodomain ligands targeting BAZ2A” (Protein Science : A Publication of the Protein Society, 2023).
“Also recorded” adds a separate entry of the source.

Legend:
TNBC cells = tested on: TNBC cells; set-up: method as in Bevill et al., [2019]; conditions: single agent; ref Bevill et al., [2019]; cited from earlier work
[1] = tested on: heterogeneous PCa cell population; set-up: method as in Peña‐Hernández et al., [2021]; conditions: ref Peña‐Hernández et al., [2021]; cited from earlier work
[2] = tested on: PC3 (AR‐negative) PCa cells; assay: 2D proliferation assay (resazurin), PC3; format: cell-based
Description: Cell cultures, proliferation assay and spheroid gro wth […]
streptomycin and 2 m M L-glutamine. All cells were regularly tested for mycoplasma contamination.
For the proliferation assay, cells were counted with a hemocytometer and seeded in triplicates in 96-well plates (4 .5x10^3 cells/well for 22Rv1 and 2.0x103 for PC3) and let adhere overnight at 37°C, […]
(§1) transfected with siRNA for BAZ2A , RLUC or KIF11, as detailed below. The cells were incubated for 1, 3, 6 (PC3) and 9 days (22Rv1) and the medium containing either the carrier or the inhibitors was replaced every 3 day s. Cell proliferation and viability were determined at day 1, 3, 6 and 9 by adding 10% resazurin sodium salt solution (0. 03 mg/ml powder from Sigma -Aldrich) directly into each well and incubating them for 4h at 37°C, 5% CO 2. The absorbance at 570/600 nm was measured using a Varioskan plate reader. The reduction of the resazur in sodium salt was calculated using the formula: (Abs x – Abs 0. 1%DMSO day1)/(Abs 0. 1%DMSO day9 - Abs 0. 1%DMSO day1). The growth rate was analysed using the linear regression algorithm of GraphPad Prism. […]

PCa cells = assay: RT-qPCR of genes affected by BAZ2A genetic ablation; format: cell-based; conditions: 25 μM, 6 days, PC3 and 22Rv1
Description: equipped with a Leica DFC450C digital camera. The area of each spheroid was measured using ImageJ and the average area for each condition was calculated. The growth rate was analysed using the segmental linear regression algorithm of GraphPad Prism. The appropriateness of the model was evaluated by considering the R square values and the Replicates test (Suppl. Table 6).
Cells were counted and plated in 6 well (for RNA extraction) or 96 well (for growth curve) at a […]
and 4.5x10^3 cells/well for 22Rv1) and let attach overnight at 37°C, 5% CO2. […] The gene expression was analyzed after 6 days from the cells seeded in the 6 well, while the viability was analyzed in the same way as for the cells treated with the […]
Cells were previously counted and plated in 6 well at a fixed amount (60.000 cells/well for PC3; 135.000 cells/well for 22Rv1). The RNA was extracted using the phenol-chloroform method and its concentration was measured by Nano spectrophotometer. […]
Total protein content was extracted from cells transfected with siRNA B AZ2A or siRNA RLU C (negative control). […] Cells were lysed using RIPA buffer and protein concentration was determined by Bradford Reagent (Sigma-Aldrich), according to the manufacturer’s instructions. […]

PCa cancer stem cells = tested on: PCa cancer stem cells; set-up: method as in Peña‐Hernández et al., [2021]; conditions: ref Peña‐Hernández et al., [2021]; cited from earlier work
[3] = tested on: 22Rv1 (AR‐positive) PCa cells; assay: 2D proliferation assay (resazurin), 22Rv1; format: cell-based
Description: Cell cultures, proliferation assay and spheroid gro wth
PC3 and 22Rv1 cells were cultured in RPMI 1640 medium containing 10% FBS, 1% penicillin-streptomycin and 2 m M L-glutamine. All cells were regularly tested for mycoplasma contamination.
For the proliferation assay, cells were counted with a hemocytometer and seeded in triplicates in 96-well plates (4 .5x10^3 cells/well for 22Rv1 and 2.0x103 for PC3) and let adhere overnight at 37°C, 5% CO2. The following day, the medium was replaced with RPMI 1640 containing either the carrier […]
as §1

Cn1cc(CCn2cnc(-c3cnn(C)c3)c2-c2ccc(C#N)cc2)cn1 [BAZ2‐ICR]
effect on TNBC cells (TNBC cells): did not affect TNBC cells
proliferation of heterogeneous PCa cell population [1]: does not affect the proliferation
effect on 2D growth of PC3 cells ([2]; 2D‐cell culture, PC3): did not affect growth; also recorded: but not BAZ2‐ICR, reduces 2D growth
effect on viability of PC3 cells ([2]; 2D‐cell culture, PC3): did not affect growth or viability
Slope (best-fit, linear regression of growth curve) ([2]; PC3, 0.5 µM): 0,1625
Slope (best-fit, linear regression of growth curve) ([2]; PC3, 5 µM): 0,1599
Slope (best-fit, linear regression of growth curve) ([2]; PC3, 10 µM): 0,1532
Slope (best-fit, linear regression of growth curve) ([2]; PC3, 25 µM): 0,1580
transcription of a set of genes affected by BAZ2A genetic ablation (PCa cells): did not comparably alter the transcription
efficacy on PCa cancer stem cells (PCa cancer stem cells): effective on PCa cancer stem cells
effect on 2D growth of 22Rv1 cells ([3]; 2D‐cell culture, 22Rv1): did not affect growth; also recorded: but not BAZ2‐ICR, reduces 2D growth
effect on viability of 22Rv1 cells ([3]; 2D‐cell culture, 22Rv1): did not affect growth or viability
Slope (best-fit, linear regression of growth curve) ([3]; 22Rv1, 0.5 µM): 0,1041
Slope (best-fit, linear regression of growth curve) ([3]; 22Rv1, 5 µM): 0,1046
Slope (best-fit, linear regression of growth curve) ([3]; 22Rv1, 10 µM): 0,1034
Slope (best-fit, linear regression of growth curve) ([3]; 22Rv1, 25 µM): 0,1066
